From patent US7288622B1, “Composition for treatment of burns and wounds” (Issar Pharmaceuticals Pvt Ltd, priority 2006, dated 2007)
Converted amounts (≈) assume the structure as drawn. Residues, ends and D or L forms follow the SMILES beside them.

Legend:
[1] = physchem; assay type: physicochemical
Excerpt: The molecular weight of the peptide is 2776 and 3388 with counter ions. The peptide is water-soluble and forms an alpha helical secondary protein structure.

[2] = tested on: rats; experiment: Acute toxicity test of the peptide in rats; assay type: in vivo; settings: 8.95 mg/kg intraperitoneal, single dose, inspected at 3rd, 6th, 12th and 24th hour, animals active on 14th day
Experimental: (§1) The safety of the peptide was tested with mice and rats at age of 4 to 6 weeks. The tests were conducted with five female mice and rats and five male mice and rats. The dose of the peptide injected intraperitoneal was 8.95 mg/kg for rats and 12.53 mg/kg for mice. The acute toxicity test was conducted at 3rd, 6th, 12th and 24th hour after exposure to the peptide. […] The animals were active still on 14th day.

[3] = tested on: mice; experiment: Acute toxicity test of the peptide in mice; assay type: in vivo; settings: 12.53 mg/kg intraperitoneal, single dose, inspected at 3rd, 6th, 12th and 24th hour, animals active on 14th day
Experimental: as §1

Which results are given for `C[C@H](NC(=O)[C@H](Cc1ccccc1)NC(=O)[C@H](C)NC(=O)[C@H](Cc1ccccc1)NC(=O)[C@H](CCCCN)NC(=O)[C@H](C)NC(=O)[C@H](Cc1ccccc1)NC(=O)[C@H](CCCCN)NC(=O)[C@H](CCCCN)NC(=O)[C@H](C)NC(=O)[C@H](Cc1ccccc1)NC(=O)[C@H](CCCCN)NC(=O)[C@H](CCCCN)NC(=O)[C@H](Cc1ccccc1)NC(=O)[C@H](CCCCN)NC(=O)[C@H](CCCCN)NC(=O)[C@H](C)NC(=O)[C@H](Cc1ccccc1)NC(=O)[C@H](CCCCN)NC(=O)[C@H](CCCCN)NC(=O)[C@H](C)NC(=O)[C@@H](N)Cc1ccccc1)C(=O)N[C@@H](Cc1ccccc1)C(=O)O` [peptide] (H-FAKKFAKKFKKFAKKFAKFAFAF-OH; N-terminus and C-terminus assumed)?
Solubility in 10% DMSO in saline [1]: 32.25 µmol/mL (≈ 89.5 mg/mL); solubility ([1]; saline or isotonic): 31.6 mM (≈ 87.6 mg/mL); Acute lethality [2]: No lethality was found; Acute lethality [3]: No lethality was found
